Measurements as given in patent US20260262643A1, “HERBICIDAL BENZOXAZINES” (FMC CORPORATION, priority 2022, published 2026).

How the values were obtained:
kochia [1] = assay: Test C postemergence; type: in vivo, Bassia scoparia; conditions: 10 days
How it was run: (§1)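 Visual injury score, 0–100 (100 = complete control), taken 10 days after treatment relative to untreated controls. Pre: directed spray onto soil over sown seeds. Post: foliar spray at one- to two-leaf stage, 2–10 cm. Solvent/surfactant formulation; loam–sand soil; greenhouse.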

oat, wild [2] = assay: Test C preemergence; type: in vivo, Avena fatua; conditions: 0 to 100 scale (0 no effect, 100 complete control); for Oat, Wild plant response rating: preemergence
How it was run: as §1

ryegrass, Italian [3] = assay: Test C preemergence; type: in vivo, Lolium multiflorum; conditions: 0 to 100 scale (0 no effect, 100 complete control); for Ryegrass, Italian plant response rating: preemergence
How it was run: as §1

barnyardgrass [4] = assay: Test C preemergence; type: in vivo, Echinochloa crusgalli; conditions: 0 to 100 scale (0 no effect, 100 complete control); for Plant response rating, Barnyardgrass: Preemergence, 500 g ai/ha, visual rating after 10 days; for Barnyardgrass plant response rating: preemergence, 125 g ai/ha
How it was run: as §1

oat, wild [5] = assay: Test C postemergence; type: in vivo, Avena fatua; conditions: 10 days
How it was run: as §1

wheat [6] = assay: Test C preemergence; type: in vivo, Triticum aestivum; conditions: 0 to 100 scale (0 no effect, 100 complete control); for Wheat plant response rating: preemergence
How it was run: as §1

green foxtail [7] = assay: Test C preemergence; type: in vivo, Setaria viridis; conditions: 0 to 100 scale (0 no effect, 100 complete control); for Foxtail, Green plant response rating: preemergence
How it was run: as §1

wheat [8] = assay: Test C postemergence; type: in vivo, Triticum aestivum; conditions: 10 days
How it was run: as §1

horseweed = assay: Test C postemergence; type: in vivo, Erigeron canadensis; conditions: 10 days
How it was run: as §1

barnyardgrass [9] = assay: Test C postemergence; type: in vivo, Echinochloa crusgalli; conditions: 10 days
How it was run: as §1

green foxtail [10] = assay: Test C postemergence; type: in vivo, Setaria viridis; conditions: 10 days
How it was run: as §1

ragweed [11] = assay: Test C postemergence; type: in vivo, Ambrosia artemisiifolia; conditions: 10 days
How it was run: as §1

pigweed, palmer [12] = assay: Test C postemergence; type: in vivo, Amaranthus palmeri; conditions: 10 days
How it was run: as §1

sedge, umbrella = assay: Test D flooded paddy test; type: in vivo, Cyperus difformis; conditions: 250 g ai/ha, applied to paddy water, visual rating after 13 to 14 days, scale 0 to 100 (0 no effect, 100 complete control)
How it was run: (§2)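 Seedlings reached the 2-leaf stage, then pots were flooded to 3 cm over the soil surface. Compound was applied into the water, depth was maintained, and plants stayed in the greenhouse 13 to 14 days before visual scoring (0–100) relative to controls.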

kochia [13] = assay: Test C preemergence; type: in vivo, Bassia scoparia; conditions: 0 to 100 scale (0 no effect, 100 complete control); for Kochia plant response rating: preemergence
How it was run: as §1

corn [14] = assay: Test C preemergence; type: in vivo, Zea mays; conditions: 0 to 100 scale (0 no effect, 100 complete control); for Corn plant response rating: preemergence
How it was run: as §1

ryegrass, Italian [15] = assay: Test C postemergence; type: in vivo, Lolium multiflorum; conditions: 10 days
How it was run: as §1

rice = assay: Test D flooded paddy test; type: in vivo, Oryza sativa; conditions: 250 g ai/ha, applied to paddy water, visual rating after 13 to 14 days, scale 0 to 100 (0 no effect, 100 complete control)
How it was run: as §2

soybean [16] = assay: Test C preemergence; type: in vivo, Glycine max; conditions: 0 to 100 scale (0 no effect, 100 complete control); for Soybean plant response rating: preemergence
How it was run: as §1

blackgrass [17] = assay: Test C postemergence; type: in vivo, Alopecurus myosuroides; conditions: 10 days
How it was run: as §1

ragweed [18] = assay: Test C preemergence; type: in vivo, Ambrosia artemisiifolia; conditions: 0 to 100 scale (0 no effect, 100 complete control); for Ragweed plant response rating: preemergence
How it was run: as §1

barnyardgrass [19] = assay: Test D flooded paddy test; type: in vivo, Echinochloa crus-galli; conditions: 250 g ai/ha, applied to paddy water, visual rating after 13 to 14 days, scale 0 to 100 (0 no effect, 100 complete control)
How it was run: as §2

ducksalad = assay: Test D flooded paddy test; type: in vivo, Heteranthera limosa; conditions: 250 g ai/ha, applied to paddy water, visual rating after 13 to 14 days, scale 0 to 100 (0 no effect, 100 complete control)
How it was run: as §2

blackgrass [20] = assay: Test C preemergence; type: in vivo, Alopecurus myosuroides; conditions: 0 to 100 scale (0 no effect, 100 complete control); for Plant response rating, Blackgrass: Preemergence, 500 g ai/ha, visual rating after 10 days; for Blackgrass plant response rating: Test C, preemergence, 125 g ai/ha
How it was run: as §1

corn [21] = assay: Test C postemergence; type: in vivo, Zea mays; conditions: 10 days
How it was run: as §1

pigweed, palmer [22] = assay: Test C preemergence; type: in vivo, Amaranthus palmeri; conditions: 0 to 100 scale (0 no effect, 100 complete control); for Pigweed, Palmer plant response rating: preemergence
How it was run: as §1

soybean [23] = assay: Test C postemergence; type: in vivo, Glycine max; conditions: 10 days
How it was run: as §1

galium = assay: Test C postemergence; type: in vivo, Galium aparine; conditions: 10 days
How it was run: as §1

[24] = 125 g ai/ha, postemergence, 0 to 100 scale, 0 no effect, 100 complete control
[25] = Postemergence, 500 g ai/ha, visual 0 to 100 scale (0 no effect, 100 complete control)
[26] = Preemergence, 500 g ai/ha, visual rating after 10 days

COc1ccc(-n2cncn2)cc1C(=O)N1C[C@H](C)Oc2c(F)cccc21 [Compound 270]
Plant response rating, Kochia (kochia [1]; [24]): 30
Oat, Wild plant response rating (oat, wild [2]; 500 g ai/ha): 90
Oat, Wild plant response rating (oat, wild [2]; Test C, 125 g ai/ha): 40
Ryegrass, Italian plant response rating (ryegrass, Italian [3]; 500 g ai/ha): 100
Ryegrass, Italian plant response rating (ryegrass, Italian [3]; Test C, 125 g ai/ha): 90
Plant response rating, Barnyardgrass (barnyardgrass [4]): 100
Barnyardgrass plant response rating (barnyardgrass [4]; Test C): 70
Plant response rating, Oat, Wild (oat, wild [5]; [24]): 90
Wheat plant response rating (wheat [6]; 500 g ai/ha): 90
Wheat plant response rating (wheat [6]; Test C, 125 g ai/ha): 40
Foxtail, Green plant response rating (green foxtail [7]; 500 g ai/ha): 100
Foxtail, Green plant response rating (green foxtail [7]; Test C, 125 g ai/ha): 100
Plant response rating, Wheat (wheat [8]; [24]): 80
Plant response rating, Horseweed (horseweed; [24]): 20
Plant response rating, Horseweed (horseweed; [25]): 60
Plant response rating, Barnyardgrass (barnyardgrass [9]; [24]): 90
Plant response rating, Barnyardgrass (barnyardgrass [9]; [25]): 100
Plant response rating, Foxtail, Green (green foxtail [10]; [24]): 80
Plant response rating, Foxtail, Green (green foxtail [10]; [25]): 90
Plant response rating, Ragweed (ragweed [11]; [24]): 30
Plant response rating, Pigweed, Palmer (pigweed, palmer [12]; [24]): 40
Plant response rating, Sedge, Umbrella (Flood) (sedge, umbrella): 95
Kochia plant response rating (kochia [13]; 500 g ai/ha): 90
Kochia plant response rating (kochia [13]; Test C, 125 g ai/ha): 60
Corn plant response rating (corn [14]; 500 g ai/ha): 40
Corn plant response rating (corn [14]; Test C, 125 g ai/ha): 0
Plant response rating, Ryegrass, Italian (ryegrass, Italian [15]; [24]): 80
Plant response rating, Rice (Flood) (rice): 10
Soybean plant response rating (soybean [16]; 500 g ai/ha): 100
Soybean plant response rating (soybean [16]; Test C, 125 g ai/ha): 90
Plant response rating, Blackgrass (blackgrass [17]; [24]): 80
Plant response rating, Blackgrass (blackgrass [17]; [25]): 90
Ragweed plant response rating (ragweed [18]; 500 g ai/ha): 60
Ragweed plant response rating (ragweed [18]; Test C, 125 g ai/ha): 10
Plant response rating, Barnyardgrass (Flood) (barnyardgrass [19]): 15
Plant response rating, Ducksalad (Flood) (ducksalad): 100
Plant response rating, Blackgrass (blackgrass [20]): 90
Blackgrass plant response rating (blackgrass [20]): 80
Plant response rating, Corn (corn [21]; [24]): 40
Plant response rating, Corn (corn [21]; [25]): 90
Pigweed, Palmer plant response rating (pigweed, palmer [22]; 500 g ai/ha): 100
Pigweed, Palmer plant response rating (pigweed, palmer [22]; Test C, 125 g ai/ha): 90
Plant response rating, Soybean (soybean [23]; [24]): 100
Plant response rating, Galium (galium; [24]): 100
Plant response rating, Galium (galium; [25]): 100

C[C@H]1CN(C(=O)c2cc(-n3cnc(C4CCC4)n3)cc3c2OCCO3)c2cccc(Cl)c2O1 [Compound 157]
Plant response rating, Kochia (kochia [1]; [24]): 90
Plant response rating, Kochia (kochia [1]; [25]): 100
Plant response rating, Oat, Wild (oat, wild [2]; [26]): 50
Oat, Wild plant response rating (oat, wild [2]; Test C, 125 g ai/ha): 0
Plant response rating, Ryegrass, Italian (ryegrass, Italian [3]; [26]): 90
Ryegrass, Italian plant response rating (ryegrass, Italian [3]; Test C, 125 g ai/ha): 70
Barnyardgrass plant response rating (barnyardgrass [4]): 50
Plant response rating, Barnyardgrass (barnyardgrass [4]): 90
Plant response rating, Oat, Wild (oat, wild [5]; [24]): 20
Plant response rating, Oat, Wild (oat, wild [5]; [25]): 20
Plant response rating, Wheat (wheat [6]; [26]): 30
Wheat plant response rating (wheat [6]; Test C, 125 g ai/ha): 0
Plant response rating, Foxtail, Green (green foxtail [7]; [26]): 100
Foxtail, Green plant response rating (green foxtail [7]; Test C, 125 g ai/ha): 100
Plant response rating, Wheat (wheat [8]; [24]): 20
Plant response rating, Wheat (wheat [8]; [25]): 30
Plant response rating, Horseweed (horseweed; [24]): 30
Plant response rating, Horseweed (horseweed; [25]): 90
Plant response rating, Barnyardgrass (barnyardgrass [9]; [24]): 30
Plant response rating, Barnyardgrass (barnyardgrass [9]; [25]): 70
Plant response rating, Foxtail, Green (green foxtail [10]; [24]): 70
Plant response rating, Foxtail, Green (green foxtail [10]; [25]): 90
Plant response rating, Ragweed (ragweed [11]; [24]): 100
Plant response rating, Ragweed (ragweed [11]; [25]): 100
Plant response rating, Pigweed, Palmer (pigweed, palmer [12]; [24]): 90
Plant response rating, Pigweed, Palmer (pigweed, palmer [12]; [25]): 100
Plant response rating, Sedge, Umbrella (Flood) (sedge, umbrella): 45
Plant response rating, Kochia (kochia [13]; [26]): 90
Kochia plant response rating (kochia [13]; Test C, 125 g ai/ha): 20
Plant response rating, Corn (corn [14]; [26]): 0
Corn plant response rating (corn [14]; Test C, 125 g ai/ha): 0
Plant response rating, Ryegrass, Italian (ryegrass, Italian [15]; [24]): 30
Plant response rating, Ryegrass, Italian (ryegrass, Italian [15]; [25]): 80
Plant response rating, Rice (Flood) (rice): 20
Plant response rating, Soybean (soybean [16]; [26]): 60
Soybean plant response rating (soybean [16]; Test C, 125 g ai/ha): 50
Plant response rating, Blackgrass (blackgrass [17]; [24]): 60
Plant response rating, Blackgrass (blackgrass [17]; [25]): 70
Plant response rating, Ragweed (ragweed [18]; [26]): 80
Ragweed plant response rating (ragweed [18]; Test C, 125 g ai/ha): 90
Plant response rating, Barnyardgrass (Flood) (barnyardgrass [19]): 15
Plant response rating, Ducksalad (Flood) (ducksalad): 0
Plant response rating, Blackgrass (blackgrass [20]): 30
Blackgrass plant response rating (blackgrass [20]): 30
Plant response rating, Corn (corn [21]; [24]): 10
Plant response rating, Corn (corn [21]; [25]): 20
Plant response rating, Pigweed, Palmer (pigweed, palmer [22]; [26]): 100
Pigweed, Palmer plant response rating (pigweed, palmer [22]; Test C, 125 g ai/ha): 100
Plant response rating, Soybean (soybean [23]; [24]): 100
Plant response rating, Soybean (soybean [23]; [25]): 100
Plant response rating, Galium (galium; [24]): 100
Plant response rating, Galium (galium; [25]): 100
